From article PMC7069944, “Amino acid levels determine metabolism and CYP450 function of hepatocytes and hepatoma cell lines” (Nature Communications, 2020)
pIC50: −log10 of the molar value. “And” between values parts separate entries of the source, which are not always exact repeats. Equal values may be shown once. Read-outs that look alike come from different tables or passages of the source.

Tests used:
CYP2D6 = CYP2D6 (Homo sapiens, UniProt P10635); assay: Drug biotransformation cocktail: dextromethorphan
Chain of CYP2D6 (P10635 whole entry): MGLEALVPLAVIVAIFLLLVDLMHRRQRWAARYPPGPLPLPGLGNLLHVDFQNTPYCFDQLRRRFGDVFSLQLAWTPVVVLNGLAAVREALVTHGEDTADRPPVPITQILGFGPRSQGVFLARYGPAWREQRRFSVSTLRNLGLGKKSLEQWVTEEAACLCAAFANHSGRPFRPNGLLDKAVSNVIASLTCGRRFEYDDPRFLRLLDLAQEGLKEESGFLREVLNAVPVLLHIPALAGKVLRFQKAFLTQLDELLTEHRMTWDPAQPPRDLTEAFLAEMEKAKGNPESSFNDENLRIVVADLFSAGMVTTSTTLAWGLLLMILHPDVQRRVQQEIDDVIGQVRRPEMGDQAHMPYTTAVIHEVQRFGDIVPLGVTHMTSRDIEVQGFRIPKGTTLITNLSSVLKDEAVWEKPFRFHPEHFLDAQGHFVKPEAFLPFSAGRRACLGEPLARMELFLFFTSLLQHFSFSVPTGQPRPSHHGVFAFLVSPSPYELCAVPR
Description: (§1) Comparative CYP450 biotransformation studies were performed to assess functionality across a number of gold standard primary hepatocyte models. Cryopreserved PHHs were obtained from a single donor (Lonza, Breda, The Netherlands) or pooled donors (Thermo Scientific, Merelbeke, Belgium). Upon thawing, cell suspensions (0.5 million cells/ml) were prepared in WE medium using 24-well plates (0.5 ml/well) on an orbital shaker and metabolization activity was assessed following a 15 min equilibration period. Human Hepatopac® plates were obtained from Ascendance Biotechnology (Ascendance Biotechnology, Boston USA) and cultures were maintained following instructions of the provider. Spheroid cultures were generated in-house as essentially described by Bell et al.[42].
(§2) Finally, the system was re-equilibrated at 60% (A)/40% (B) for an additional 0.7 min. Total run time was 3.8 min and 2 µl aliquots were injected onto the system for analysis.
(§3) All data collection, processing, and analysis was performed with Analyst® software (v1.6.2. SCIEX).

CYP3A4 [1] = assay: qRT-PCR CYP3A4 expression in HepG2; format: cell-based, human; details: single amino acid supplementation, relative to CTL (CTL values equal HepG2 D7 CTL)
Description: AA supplementation was accomplished through the addition of MEM Non-Essential Amino Acids Solution (100 × ) and MEM Amino Acids Solution (50 × ) (Thermo Scientific) to the culture medium. For AA1, AA2, and AA3 medium, we added respectively 2 ml, 8 ml, and 16 ml of non-essential AA solution and 1 ml, 4 ml, and 8 ml of essential AA solution per 100 ml of LDM, with or without glucose. Culture medium was then made PH neutral through the addition of NaOH. […] PSC derived HLCs were differentiated in LDM until D12. AA supplementation (AA1, AA2 and AA3) was performed from day 12 until day 20, 30 or 40 of differentiation. […] HepG2, HUH7.5, Hep3B, HHL5, and HEK293 cells were maintained in DMEM supplemented with 10% fetal bovine serum as shown in Supplementary Table 4. AA supplementation consisted of addition of 16 ml of non-essential AA mix and 8 ml of essential AA mix per 100 ml of medium and a further addition of 20 g/l of any of the single AAs. […] PHHs were maintained in a medium composition that was based on WE as detailed in ref. [67].
RNA extraction was performed using the GenElute Mammalian Total RNA Miniprep Kit (Sigma-Aldrich). Then, genomic DNA was eliminated using the On-Column DNase I Digestion kit (Sigma-Aldrich). Last, 1 µg of RNA was transcribed to cDNA using the Superscript III First-Strand synthesis (Invitrogen). Gene expression analysis was performed using the Platinum SYBR green qPCR supermix-UDG kit (Invitrogen) in a ViiA 7 Real-Time PCR instrument (Thermo Scientific, Waltham, MA). The sequences of all used qRT-PCR primers are listed in Supplementary Table 6. Of these, ribosomal protein L19 (RPL19) was used as a housekeeping gene for normalization.

CYP3A4 [2] = molecular target: CYP3A4 (Homo sapiens, UniProt P08684); details: HepG2 AAGLY D32 and HC6X AAGLY D40, single exposure
Chain of CYP3A4 (Homo sapiens, UniProt P08684) (P08684 whole entry): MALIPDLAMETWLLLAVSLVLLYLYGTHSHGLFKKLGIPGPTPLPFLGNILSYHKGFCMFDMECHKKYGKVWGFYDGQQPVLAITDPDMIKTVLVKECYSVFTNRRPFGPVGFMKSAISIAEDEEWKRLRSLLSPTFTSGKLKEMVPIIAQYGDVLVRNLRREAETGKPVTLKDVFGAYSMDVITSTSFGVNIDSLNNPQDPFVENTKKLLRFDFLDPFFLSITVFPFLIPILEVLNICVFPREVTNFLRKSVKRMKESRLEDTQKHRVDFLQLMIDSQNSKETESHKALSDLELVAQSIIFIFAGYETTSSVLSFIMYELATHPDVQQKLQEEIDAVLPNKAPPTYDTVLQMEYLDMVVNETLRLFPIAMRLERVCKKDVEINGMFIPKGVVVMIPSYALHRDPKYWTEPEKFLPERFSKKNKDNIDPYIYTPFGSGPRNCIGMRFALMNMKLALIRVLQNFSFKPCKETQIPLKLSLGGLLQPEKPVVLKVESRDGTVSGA
Description: as §1, §2, §3

[3] = system: HC6X in the BJ1-iPSC background; assay: Single-exposure toxicity, Hoechst/DRAQ7 live cell number, HC6X (BJ1-iPSC); details: Homo sapiens
Description: (§4) PSCs were differentiated in a 384-well format. Cells were treated with 14 different concentrations of compounds in 6 repeats. As a negative control, 41 wells were left untreated. HepG2 were seeded at 40,000 cells per well. For control conditions, HepG2 were exposed after 2 days of culture. […] Cells were fixed with 4% PFA. Imaging was done using an Operetta High-Content Imaging System (Perkin Elmer) and image analysis was performed using Harmony software (Perkin Elmer). […] As a positive control, 1 donor of PHHs was seeded at 10,000 cells per well. Drugs were administrated after 8 h of attachment.

HepG2 = assay: Single-exposure toxicity, Hoechst/DRAQ7 live cell number, HepG2; details: for pIC50: Homo sapiens
Description: as §4

HLCs = assay: Single-exposure toxicity, Hoechst/DRAQ7 live cell number, HLCs
Description: as §4

PHHs = assay: Single-exposure toxicity, Hoechst/DRAQ7 live cell number, PHH 12 h; details: Homo sapiens, read-out: IC50 single exposure, Mean
Description: as §4

[4] = system: HC6X in the H9-ESC background; assay: Single-exposure toxicity, Hoechst/DRAQ7 live cell number, HC6X (H9-ESC); details: Homo sapiens
Description: as §4

Question: Which “Dextrometrophan biotransformation (cocktail)” value (CYP2D6; HC6X LDM D40) does the source give for `COc1ccc2c(c1)[C@]13CCCC[C@@H]1[C@H](C2)N(C)CC3` [Dextrometrophan] here?
Answer: 0

Question: What about the “Dextrometrophan biotransformation (cocktail)” value (CYP2D6; HepG2 AAGLY D32) of the same molecule?
Answer: 0

Question: And the “Dextrometrophan biotransformation (cocktail)” value (CYP2D6; HepG2 CTL D4)?
Answer: 0

Question: And the “Dextrometrophan biotransformation (cocktail)” value (CYP2D6; HepaRG diff D7)?
Answer: 0

Question: What about the “Dextrometrophan biotransformation (cocktail)” value (CYP2D6; Hepatopac) of the same molecule?
Answer: 0.5629 and 0.7098 and 0.9714

Question: What about the “Dextrometrophan biotransformation (cocktail)” value (CYP2D6; PHH1) of the same molecule?
Answer: 15.8656 and 14.7 and 17.4198

Question: For `O=C(O)[C@@H]1CCCN1` [PRO, proline], which “Relative CYP3A4 expression” value (CYP3A4 [1]) is on record?
Answer: 252.463 and 338.714 and 412.836

Question: How did the “Relative CYP3A4 expression” value (CYP3A4 [1]) turn out when `N[C@@H](CO)C(=O)O` [SER, serine] was run?
Answer: 405.322 and 582.424 and 382.821

Question: `Cc1ncc2n1-c1ccc(Cl)cc1C(c1ccccc1F)=NC2` [midazolam] was tested. Which “midazolam biotransformation compared with PHHs” value (CYP3A4 [2]) did it give?
Answer: equal to that of PHHs

Question: How did the pIC50 ([3]; read-out: IC50 single exposure, Mean, BJ1 HC6X AAGLY D40) turn out when `C=C(C)[C@H]1Cc2c(ccc3c2O[C@@H]2COc4cc(OC)c(OC)cc4[C@@H]2C3=O)O1` [rotenone] was run?
Answer: 8.59

Question: What about the pIC50 ([3]; read-out: IC50 single exposure, Mean, BJ1 HC6X AAGLY D50) of the same molecule?
Answer: 8.12

Question: And the “IC50 single exposure, Mean” value (HepG2; HepG2 CTL D7)?
Answer: No toxicity

Question: And the pIC50 (HepG2; HepG2, read-out: IC50 single exposure, Mean, HepG2 AAGLY D30)?
Answer: 9.05

Question: What about the pIC50 (HepG2; HepG2, read-out: IC50 single exposure, Mean, HepG2 AAGLY D40) of the same molecule?
Answer: 8.60

Question: And the “IC50 single exposure, Mean” value (HLCs; H9 HLC LDM D40)?
Answer: No toxicity

Question: And the pIC50 (HLCs; Homo sapiens, read-out: IC50 single exposure, Mean)?
Answer: 8.27

Question: And the pIC50 (PHHs)?
Answer: 8.89

Question: And the pIC50 ([4]; read-out: IC50 single exposure, Mean, H9 HC6X AAGLY D40)?
Answer: 8.08

Question: And the pIC50 ([4]; read-out: IC50 single exposure, Mean, H9 HC6X AAGLY D50)?
Answer: 8.38
